Laboratory results published in patent US8722718B2, “Inhibitors of C-FMS kinase” (Janssen Pharmaceutica NV, priority 2006, dated 2014).

Key:
[1] = molecular target: c-fms (Homo sapiens (Human), UniProt P07333); test: c-fms autophosphorylation fluorescence polarization competition immunoassay (1 nM c-fms; peptide Pi assay); type: biochemical; conditions: read-out: 1 nM c-fms, peptide Pi assay IC-50
Procedure: Fluorescence Polarization Competition Immunoassay
The assay buffer used was 100 mM 4-(2-hydroxyethyl)piperazine 1-ethanesulfonic acid (HEPES), pH 7.5, 1 mM 1,4-dithio-DL-threitol (DTT), 0.01% (v/v) Tween-20. Compounds were diluted in assay buffer containing 4% dimethylsulfoxide (DMSO) just prior to the assay. […] The kinase reaction was initiated by adding 2 μL of 5 mM ATP (Sigma) in assay buffer. […] Control reactions were ran in each plate: in positive and negative control wells, assay buffer (made 4% in DMSO) was substituted for the compound; in addition, positive control wells received 1.2 μL of 50 mM ethylenediaminetetraaceticacid (EDTA).
The plates were incubated at room temperature for 45 min. At the end of the incubation, the reaction was quenched with 1.2 μL of 50 mM EDTA (EDTA was not added to the positive control wells at this point; see above). Following a 5-min incubation, each well received 10 μL of a 1:1:3 mixture of anti-phosphotyrosine antibody, 10×, PTK green tracer, 10× (vortexed), FP dilution buffer, respectively (all from PanVera, cat. #P2837). The plate was covered, incubated for 30 min at room temperature and the fluorescence polarization was read on the Analyst. The instrument settings were: 485 nm excitation filter; 530 nm emission filter; Z height: middle of well; G factor: 0.93. […] The reported IC50 values are averages of three independent measurements.

[2] = test system: mouse bone-marrow derived macrophages (BMDM); test: CSF-1-driven mouse bone-marrow derived macrophages proliferation assay (BrDU incorporation); type: cell-based; conditions: mCSF driven proliferation, read-out: mCSF driven proliferation BMDM (Mouse) IC-50
Procedure: CSF-1-Driven Mouse Bone-Marrow Derived Macrophages Assay
Macrophages are derived by culturing mouse bone marrow in alpha-MEM supplemented with 10% FCS and 50 ng/ml recombinant mouse CSF-1 in bacteriologic dishes. On the sixth day, macrophages are detached from dishes, washed, and resuspended to 0.05 million cells/ml in alpha-MEM containing 10% FCS. One hundred ul of cell suspension are distributed per well into 96 well culture plates. Wells are further supplemented with the addition of 50 ul media containing 15 ng/ml CSF-1, 3 uM Indomethacin, and 3× of a dilution series of test compounds. The cells are cultured for 30 hrs at 37 degrees and 5% CO2. During the final six hours, cultures are supplemented with an additional 30 ul of media containing a 1:500 dilution of bromodeoxyuridine (BrDU). At the end of the culture period, the plates are spun at 1000 RPM for 1 minute and 130 ul of media is removed with a pipet and replaced with 150 ul of fixative solution for 1 hour @ room temperature. The fixative is then dispelled from the plates and the plates allowed to air dry. Incorporation of BrDU into the fixed, dried cells is quantified using a specific ELISA.

Chain of c-fms (P07333 20-972): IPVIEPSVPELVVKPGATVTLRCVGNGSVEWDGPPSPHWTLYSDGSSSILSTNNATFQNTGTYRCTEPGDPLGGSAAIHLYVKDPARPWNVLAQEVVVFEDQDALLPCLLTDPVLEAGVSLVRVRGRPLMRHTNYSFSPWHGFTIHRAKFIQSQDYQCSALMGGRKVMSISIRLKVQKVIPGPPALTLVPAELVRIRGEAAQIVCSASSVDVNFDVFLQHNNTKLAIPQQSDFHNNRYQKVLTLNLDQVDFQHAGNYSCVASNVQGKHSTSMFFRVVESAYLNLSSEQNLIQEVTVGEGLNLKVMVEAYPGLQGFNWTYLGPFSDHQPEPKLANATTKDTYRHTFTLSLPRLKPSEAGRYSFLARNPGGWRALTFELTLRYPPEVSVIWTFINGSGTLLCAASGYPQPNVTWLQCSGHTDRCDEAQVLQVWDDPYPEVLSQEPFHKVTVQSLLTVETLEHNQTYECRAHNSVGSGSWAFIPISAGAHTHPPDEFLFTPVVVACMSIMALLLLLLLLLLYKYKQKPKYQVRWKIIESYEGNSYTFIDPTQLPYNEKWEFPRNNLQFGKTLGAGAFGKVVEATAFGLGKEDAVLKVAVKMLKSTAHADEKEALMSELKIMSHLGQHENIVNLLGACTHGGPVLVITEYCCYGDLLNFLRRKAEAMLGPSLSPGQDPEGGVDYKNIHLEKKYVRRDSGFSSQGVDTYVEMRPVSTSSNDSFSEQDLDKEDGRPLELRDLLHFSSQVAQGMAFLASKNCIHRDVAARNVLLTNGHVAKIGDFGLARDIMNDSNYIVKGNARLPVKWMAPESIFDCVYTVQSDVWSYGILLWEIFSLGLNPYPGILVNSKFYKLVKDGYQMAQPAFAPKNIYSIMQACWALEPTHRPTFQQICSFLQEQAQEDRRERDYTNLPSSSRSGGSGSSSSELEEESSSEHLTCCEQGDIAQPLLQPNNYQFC

Row | IC50 [1] | SMILES | IC50 [2]
1 | 3.4 nM | CC1(c2ccc(NC(=O)c3ncc(C#N)[nH]3)c(C3=CCCCC3)c2)OCCO1 [Example 1, 5-Cyano-1H-imidazole-2-carboxylic acid [2-cyclohex-1-enyl-4-(2-methyl-[1,3]dioxolan-2-yl)-phenyl]-amide] | 48 nM
2 | 3.9 nM | CC1(c2ccc(NC(=O)c3nc(C#N)c[nH]3)c(C3=CCCCC3)c2)OCCCO1 [Example 2, 4-Cyano-1H-imidazole-2-carboxylic acid [2-cyclohex-1-enyl-4-(2-methyl-[1,3]dioxan-2-yl)-phenyl]-amide] | 44 nM
